Test results from paper PMC7024175, “In Depth Analysis of Kinase Cross Screening Data to Identify CAMKK2 Inhibitory Scaffolds” (Molecules, 2020).

Tests used:
casein kinase 2 (CK2) = molecular target: casein kinase 2 (CK2); parameters: method as in earlier work; settings: ref 80 (Bain et al.); cited from earlier work
[1] = HLM, mass spectrometry analysis; cited from earlier work
[2] = test system: aryl hydrocarbon receptor; parameters: method as in PMID 18755850; settings: cited from earlier work
mice = settings: mouse, in vivo; cited from earlier work
CAMKK2 [3] = molecular target: T1, CAMKK2 (Homo sapiens, UniProt Q96RR4); experiment: CAMKK2 enzyme assay (radiometric, CaMKKtide); type: biochemical; settings: read-out: PoC (activity remaining); for remaining activity at 0.1 µM: 0.1 µM inhibitor; for remaining activity at 1 µM: 1.0 µM inhibitor
T1 construct: made in house
T1 sequence (Q96RR4 whole entry): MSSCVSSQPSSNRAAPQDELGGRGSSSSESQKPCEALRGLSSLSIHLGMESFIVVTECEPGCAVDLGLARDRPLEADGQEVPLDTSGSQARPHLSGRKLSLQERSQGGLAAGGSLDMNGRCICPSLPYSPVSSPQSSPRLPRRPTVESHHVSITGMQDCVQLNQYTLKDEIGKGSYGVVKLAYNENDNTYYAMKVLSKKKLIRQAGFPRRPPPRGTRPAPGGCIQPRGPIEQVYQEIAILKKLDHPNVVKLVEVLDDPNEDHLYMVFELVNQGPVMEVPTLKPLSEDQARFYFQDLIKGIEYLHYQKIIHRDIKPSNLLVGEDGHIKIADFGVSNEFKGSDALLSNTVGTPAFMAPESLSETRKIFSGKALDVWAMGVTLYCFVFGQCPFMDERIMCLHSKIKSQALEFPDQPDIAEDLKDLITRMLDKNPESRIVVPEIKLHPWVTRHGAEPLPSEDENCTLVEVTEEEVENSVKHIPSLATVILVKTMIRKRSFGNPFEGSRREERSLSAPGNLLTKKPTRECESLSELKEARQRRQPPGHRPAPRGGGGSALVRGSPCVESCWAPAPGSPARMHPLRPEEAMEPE
Method: CAMKK2 activity was determined by measuring the transfer of radiolabeled phosphate from [γ-^32P]-ATP to a synthetic peptide substrate (CaMKKtide) as previously described [49]. Briefly, purified recombinant CAMKK2 (100 pM) was incubated in assay buffer (50 mM HEPES [pH 7.4], 1 mM DTT, 0.02% [v/v] Brij-35) containing 200 μM CaMKKtide (Genscript), 100 μM CaCl2, 1 μM CaM (Sigma-Aldrich, Castle Hill, NSW, Australia) 200 μM [γ-^32P]-ATP (Perkin Elmer, Boston, MA, USA), 5 mM MgCl2 (Sigma-Aldrich, Castle Hill, NSW, Australia) and various concentrations of inhibitors (0–1 μM) in a standard 30 μl assay for 10 min at 30 °C. Reactions were terminated by spotting 15 μl onto P81 phosphocellulose paper (GE Lifesciences, Paramatta, NSW, Australia) and washing extensively in 1% phosphoric acid (Sigma-Aldrich, Castle Hill, NSW, Australia). Radioactivity was quantified by liquid scintillation counting.

[4] = cited from earlier work
CAMKK2 [5] = settings: activity reported in the literature; cited from earlier work
BRD4 = settings: cited from earlier work

SMILES	IC50 (casein kinase 2 (CK2))	metabolism on exposure to human liver microsomes [1]	aryl hydrocarbon receptor binding/activation [2]	tolerability, hepatic and renal toxicity (mice)	remaining activity at 0.01 µM (CAMKK2 [3]; 0.01 µM inhibitor)	remaining activity at 0.1 µM (CAMKK2 [3])	remaining activity at 1 µM (CAMKK2 [3])	aqueous solubility [4]	pIC50 CAMKK2 reported in the literature (CAMKK2 [5])	BRD4 inhibition (BRD4)
O=C(O)c1ccc2c3c1cccc3c(=O)n1c3ccccc3nc21 [STO 609, 7-oxo-7H-benzimidazo[2,1-a]benz[de]isoquinoline-3-carboxylic acid]	0.19 µM	metabolized to three mono-hydroxylated byproducts, principally by CYP1A2	binds and activates the aryl hydrocarbon receptor	well tolerated in mice without significant hepatic or renal toxicity	63%	56%	21%	poor aqueous solubility		
O=C(O)c1ccc(-c2c[nH]c3ncc(-c4ccccc4)cc23)cc1C1CCCC1 [GSK650394]						4%	3%		9.2	
CC[C@@H]1C(=O)N(C)c2cnc(Nc3ccc(C(=O)NC4CCN(C)CC4)cc3OC)nc2N1C1CCCC1 [BI2536]										potent inhibitor of BRD4
